# Measurements published in ChEMBL document CHEMBL1134756, “Synthesis and evaluation of a difluoromethylene analogue of sphingomyelin as an inhibitor of sphingomyelinase” (Bioorg Med Chem Lett, 2001).
# How the values were obtained:
# [1] = species on record: Homo sapiens; assay: Inhibitory concentration against […] induced IL1-beta production in human peripheral monocytes; format: functional
# [2] = species on record: Bos taurus; assay: Inhibitory potency of compound against ceramide synthase activity in bovine liver microsomes(Ms) at concentration of 400 uM; details: Microsome
# [3] = Inhibitory potency of compound against neutral (N-) SMase activity in Bacillus cereus at concentration of 400 uM
# [4] = Inhibitory potency of compound against neutral (N-) SMase activity in bovine brain microsomes(Ms) at concentration of 400 uM; details: Microsome
# [5] = Inhibitory potency of compound against neutral (N-) SMase activity in bovine liver microsomes(Ms) at concentration of 400 uM; details: Microsome
# [6] = test system: Sphingomyelin phosphodiesterase 1 (acid sphingomyelinase) (Bos taurus); assay: Inhibitory potency of compound against acidic (A-) SMase activity in bovine brain lysosomes microsomes(Ms) at concentration of 400 uM; details: Microsome
IC50 [1] [nM],inhibition [2] [%],inhibition [3] [%],inhibition [4] [%],inhibition [5] [%],inhibition [6] [%],SMILES
100,–,–,–,–,–,CC[C@@H](C)/C=C(\C)C[C@@H](C)C[C@@H](C)/C=C/C=C/C=C/C(=O)N[C@H](CO)C[C@@]1(O)C(=O)C=C[C@@H]2O[C@@H]21 [SCYPHOSTATIN]
–,0,0,50,15,80,CCCCCCCCCCCCCCCCCC(=O)N[C@H](C(O)c1ccccc1)C(O)C(F)(F)P(=O)(O)O (stereo partly specified)
